Laboratory results published in publication PMC9516381 (Biochemistry and Biophysics Reports, 2022).
Where two headings read alike, the source gives them in different places.

How the values were obtained:
[1] = test system: h2E2 anti-cocaine mAb; assay: Isothermal titration calorimetry; format: binding; conditions: ITC, PBS, 20°C, mean ± SD of 4 experiments; for ΔG: calculated as ΔG = ΔH – TΔS; for Kd: reciprocal of fitted K
[2] = target: h2E2 anti-cocaine mAb; conditions: intrinsic fluorescence quenching, 20 °C, TBS buffer; cited from earlier work
[3] = target: h2E2 Fc fragment (Homo sapiens, UniProt P01857); assay: ITC of ligand binding to h2E2 Fc fragment; conditions: PBS pH 7.4, 20°C
[4] = target: mAb08 anti-cocaine mAb; conditions: ITC; cited from earlier work

Sequence of h2E2 Fc fragment (P01857 1-330 isoform P01857-1): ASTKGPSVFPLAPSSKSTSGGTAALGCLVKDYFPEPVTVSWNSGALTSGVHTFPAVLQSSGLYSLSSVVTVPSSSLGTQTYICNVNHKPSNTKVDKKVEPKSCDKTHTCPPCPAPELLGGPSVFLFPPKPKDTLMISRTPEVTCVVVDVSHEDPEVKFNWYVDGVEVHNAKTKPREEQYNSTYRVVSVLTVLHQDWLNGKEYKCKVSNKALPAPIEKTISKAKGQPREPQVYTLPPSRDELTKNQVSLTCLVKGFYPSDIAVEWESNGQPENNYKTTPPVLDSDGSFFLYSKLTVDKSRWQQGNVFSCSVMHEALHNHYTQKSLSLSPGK

Row | Structure (SMILES) | ΔG [1] [kcal/mol] | K (association) [1] [M⁻¹] | ΔH [1] [kcal/mol] | ΔS [1] [cal/mol/deg] | Kd [1] [nM] | Kd [2] [nM] | binding to the Fc fragment [3] | ΔH ([1]; listed as cocaine) | Kd ([1]; listed as cocaine) [nM] | Kd [4] [nM] | ΔH ([1]; listed as benzoylecgonine)
1 | CCOC(=O)[C@@H]1C2CCC(C[C@@H]1OC(=O)c1ccccc1)N2C (stereo partly drawn) [Cocaethylene, cocaethylene] | -11.152 ± 0.302 | 2.31e+08 ± 1.3e+08 | -13.988 ± 0.279 | −9.67 ± 1.98 | 5.29 ± 2.4 | ~1 | – | – | – | – | –
2 | COC(=O)[C@@H]1[C@H]2CC[C@@H](C[C@@H]1O)N2C [Ecgonine Methyl Ester, ecgonine methyl ester] | -6.381 ± 0.247 | 61375 ± 25024 | -2.336 ± 0.452 | 13.80 ± 2.33 | 18700 ± 8310 | – | no EME binding to the Fc fragment | – | – | – | –
3 | COC(=O)[C@H]1[C@@H](OC(=O)c2ccccc2)C[C@@H]2CC[C@H]1N2C [Cocaine, cocaine] | -10.881 ± 0.187 | 1.33e+08 ± 4.54e+07 | -15.41 ± 0.368 | −15.4 ± 1.8 | 8.13 ± 2.37 | ~4 | – | ≈ -15,400 cal/mol | ~8 | 2.5 | –
4 | CN1[C@H]2CC[C@@H]1[C@@H](C(=O)O)[C@@H](OC(=O)c1ccccc1)C2 [Benzoylecgonine, benzoylecgonine] | -9.755 ± 0.106 | 1.88e+07 ± 3.26e+06 | -15.44 ± 0.833 | −19.4 ± 2.5 | 54.4 ± 8.77 | ~20 | – | – | – | – | ≈ -15,400 cal/mol
5 | COC(=O)[C@H]1[C@@H](OC(=O)c2ccccc2)C[C@@H]2CC[C@H]1N2 [Norcocaine, norcocaine] | -7.85 ± 0.027 | 704500 ± 36098 | -3.064 ± 0.15 | 16.3 ± 0.58 | 1420 ± 72 | – | – | – | – | – | –
